# Patent US20260217983A1, “SULFONIUM SALT PHOTOINITIATORS AND METHODS OF LED CURING A COMPOSITION WITH SAID SULFONIUM SALT PHOTOINITIATORS” (ARKEMA FRANCE, priority 2022, published 2026)
# Entries after “also recorded” stand apart in the source; their conditions may differ.
# Key:
# [1] = FTIR-ATR cure test of cationic formulations (epoxide, oxetane conversion, 1100 cm^-1 peak growth); conditions: 405 nm, cationic systems
# Method: Matrixes: In a 1000 mL of metal can, formulation matrix was charged according to the percentage in Table 12. The 1000-1005 g mixture of each matrix sample was prepared and mixed by mechanical mixer for about 1 hour around 60° C. until the solution became clear. Formulations: In a white max 50 jar from FlackTek Inc., photoinitiator and propylene carbonate were loaded at first, mixed by hand with stainless steel spatula, placed in 60° C. oven for about 1 h, mixed again until it became clear. Then, formulation matrix was charged according to the percentage in one of Table 13 to 21. The […]-52.60 g mixture of each sample was prepared and mixed for 3 minutes at 3000 RPM in Speed Mixer from FleackTec Inc. Then, all jars were placed in 60° C. oven for about 2 h, taken out and immediately mixed for another 2 minutes until the solution became clear.
# A Fourier Transform Infrared (FTIR) with an Attenuated Total Reflection (ATR) setup was used. All polymerization rate measurements were performed using Nicolet iS50 FT-IR Spectrometer from Thermo Scientific, equipped with a standard DLaTGS detector. A lamp holder for the ART platform of FTIR unit can be customized and printed from Arkema N3xtDimention® engineered resin N3D-TOUGH784 in order to ensure precisely fit of a 365 nm lamp Accucure ULM-2-365 or a 405 nm lamp Accucure ULM-2-405 from Digital Light Labs. On the bottom of this lamp holder, a dry air channel is built in to allow air uniformly blowing over sample surface, the gas flow rate can be controlled over a rotameter. The LED light was manually triggered by Ultraviolet illumination & Measurement System. LED light exposure can be programed by AccuCure software. For measurement, 25 μL of liquid sample was placed in the center of an ATR crystal. 3 mil of thin film was prepared by a customized coating applicator (3 mil WFM, G1046 from BYK). The LED lamp with holder was place on the top of ART platform. Then FTIR scan was initiated to collect liquid IR spectrum at first. Each IR spectrum of a specific exposure time at 10 mW/cm^2 of LED light were collected. Measurements of acrylate conversion were taken at the peak height under the reference peak around 1727 cm^−1; the acrylate peak of SR833S at approximately 1407 cm^−1, the epoxide peak of UviCure S105 at approximately 790 cm^−1, and the oxetane peak of UViCure S130 at approximately 970 cm^−1 were also measured. Since the ring opening of both epoxide and oxetane generated C—O—C bond, the growth of C—O—C IR peak height at ~1100 cm^−1 was monitored as well. The resulting of peak 1100 cm^−1 growth rate could be calculated to assess total cationic cure speed. Peak heights were determined using the same baseline where a baseline is chosen to be the two lowest points between 600 cm^−1 and 1800 cm^−1. The peak height under the peak and above the baseline was then determined. The integration limits for liquid and the cured sample are not identical but are similar, especially for the reference peak.
# The ratios of the acrylate peak height, epoxide peak height, ring opening peak height from both epoxide and oxetane to the reference peak height were determined for both the liquid and the cured samples. Degree of cure or conversion or peak growth rate, expressed as percentage reacted acrylate or epoxide or ring opening of both epoxide and oxetane, was calculated from the equation below: […]
# Where Rliq is the peak height ratio of the liquid sample and Rc is the peak height ratio of the LED cured sample. The resulting acrylate and epoxide conversions or C—O—C growth rates were collected and listed in Tables 13 to 21, plotted in FIG. 1 to 8 and FIG. 10.
# [2] = Solubility in propylene carbonate at ambient temperature; type: physicochemical; conditions: 20-25° C.
# Method: Solubility of selected sulfonium salts in propylene carbonate at ambient temperature (20-25° C.) was determined.
# [3] = 3D printability in hybrid system on 405 nm DLP printers; conditions: hybrid formulations of Table 23
# [4] = Belt curing performance (thumb-twist depth cure) in UViCure S105E resin; conditions: 24 μm film, under air, PI 2 wt %
# Method: (§1) The photoinitiators were dissolved either in neat UViCure S105E resin or a hybrid acrylate/epoxy resin (prepared by mixing 60 wt parts UViCure S105E, 15 wt parts UViCure S130 and 25 wt parts SR492; all product are available from Sartomer). Formulations were prepared by combining all materials in the given proportions and then stirring at 30-40° C. until the samples were fully homogeneous; the formulations were then allowed to cool to room temperature. For all experiments, the formulations were cured on Leneta Form 3N-31 gloss finish paper at 6 μm and 24 μm film thickness using a belt-cure instrument; the films were prepared using a K-bar. All films were then cured under an LED lamp at a given belt speed. ‘Depth cure’ for each formulation was assessed using the ‘thumb-twist’ test (where no visible mark is made when a thumb is pressed down firmly onto the coating with a twisting motion), and from the belt speed; the calculated cure speed (in m/min) is given.
# [5] = Belt curing performance (thumb-twist depth cure) in hybrid acrylate/epoxy resin; conditions: 24 μm film, under air, PI 2 wt %
# Method: as §1
# [6] = Transmittance at 0.01% w/v in propylene carbonate; type: physicochemical
# Method: The samples were prepared at 0.01% w/v in propylene carbonate.
# [7] = UV Vis spectra measurement; type: physicochemical; conditions: 10 ppm in acetonitrile
# Description: UV-Vis spectrum of each sample was taken with a Shimadzu UV1800 spectrophotometer using a 1.0 cm path of cuvette quartz cell in accordance with ASTM E169-04, and scanning the spectrum over the wavelength range of 450 to 200 nm.
# [8] = LED 365 nm, 100% intensity (=70.1 mJ/cm^2), belt speed 40 m/min
structure (smiles),measurement,setting,value
"CCOP(=O)(C(=O)c1c(C)cc(C)cc1C)c1ccccc1 (centres unmarked) [Speedcure TPO-L, Ethyl(2,4,6-trimethylbenzoyl)phenyl phosphinate, reference compound]",effect of radical photoinitiator on cationic photopolymerization,[1],Neither radical photoinitiator BKL nor TPO-L could promote cationic photopolymerization; also recorded: slowed down the most
"COC(OC)(C(=O)c1ccccc1)c1ccccc1 [Speedcure BKL, 2,2-dimethoxy-1,2-diphenylethan-1-one, reference compound]",effect of radical photoinitiator on cationic photopolymerization,[1],Neither radical photoinitiator BKL nor TPO-L could promote cationic photopolymerization
"CC(C)c1ccc2c(c1)c(=O)c1ccccc1[s+]2-c1ccc(-c2ccccc2)cc1 (centres unmarked) [Omnicat 550, 10-[1,1′-Biphenyl]-4-yl-2-(1-methylethyl)-9-oxo-9H-thioxanthenium hexafluorophosphate, reference compound]",Solubility in propylene carbonate,[2],25 wt %
same,printability on 405 nm DLP printers,[3],not printable even with over exposure time
same,Cure speed in UViCure S105E resin,[4]; [8],5.0 m/min
same,Cure speed in UViCure S105E resin,"[4]; LED 395 nm, 40 m/min, 100% intensity (=164.5 mJ/cm^2)",8.0 m/min
same,Cure speed in hybrid acrylate/epoxy resin,[5]; [8],5.7 m/min
same,Cure speed in hybrid acrylate/epoxy resin,"[5]; LED 395 nm, 80 m/min, 50% intensity (=36.9 mJ/cm^2)",10.5 m/min
same,% Transmittance at 355 nm,[6],86.8%
same,% Transmittance at 420 nm,[6],99.1%
"CC(C)(C)c1ccc([I+]c2ccc(C(C)(C)C)cc2)cc1 [Speedcure 938, Bis (4-tert-butylphenyl) iodonium hexafluorophosphate, reference compound]",UV absorption over 310 nm wavelength,[7],did not have any absorption at all
